Test results published in patent US8192962B2, “Processes for detecting toxic substances” (Daikin Industries, Ltd., priority 2001, dated 2012).

Test system: Unknown protein yeast genes
Test: DNA chip mRNA expression in yeast, unknown protein yeast genes (Table 1)
Format: cell-based, Saccharomyces cerevisiae S288C
Protocol: Yeast (Saccharomyces cerevisiae S288C (α SUC2mal mel gap2 CUP1)) were incubated at 25° C. on YPD medium (yeast extract 1%, polypepton 2%, glucose 2%). One of toxic chemical substances was added to the cells at logarithmic growth phase, and the cells were further incubated for two hours. Cells were cultured without any chemical substance in the same condition, and were used as control. Concentrations of the chemical substances were defined to inhibit the growth of the yeast but not lead to death.
After completion of the incubation, the culture was centrifuged to collect the cells. To the cells, sodium acetate buffer (50 mM sodium acetate, 10 mM EDTA, 1% SDS) was added, and the mixture was shaken at 65° C. for five minutes, followed by returning to room temperature, and obtaining the supernatant, of which the procedures were repeated two times. To the supernatant, ½ amount of a solution of phenol/chloroform was added, and the mixture was centrifuged to give a supernatant, which was added with an equal amount of chloroform, and the mixture was centrifuged to give a supernatant. To the supernatant, an equal amount of isopropanol containing 0.3 M sodium acetate was added, and the mixture was allowed to stand at room temperature for 30 minutes, after which the mixture was centrifuged to give a sediment of the whole RNAs. Seventy % ethanol was added to the sediment, and the mixture was again centrifuged to give a sediment, which was then dried and dissolved in water. mRNA was isolated from the whole RNAs as followings. In view of the fact that a poly A chain is attached to the 3′ terminus of mRNA, a polynucleotide having a poly T structure which was immobilized on the surface of latex beads was used to trap the mRNA, and then the mRNA was washed and eluted with spine column (Oligotex-dT30<Super>mRNA Purification Kit, Takara). Reverse transcription of the mRNA was conducted with a reverse transcriptase (Super Script II Reverse Transcriptase; catalogue No. 18064-014, GibcoBRL) using fluorescence-labeled nucleotides to give cDNAs that were introduced with Cy3-dUTP or Cy5-dUTP during the reverse transcription.
The labeled cDNAs were dissolved in TE buffer (10mM Tris-HCl/1 mM EDTA, pH8.0), and the solution was dropped on the DNA chip containing the whole genes of yeast (DNA Chip Research Inc. Japan) so that the cDNAs were hybridized on the DNA chip at 65° C. for over 12 hours. The fluoresces intensity of the DNA chip was read with a scanner, and the ratio relative to the fluorescence intensity resulting from the absence of chemical substance was estimated as the following, which is shown in Tables 1 to 9: […]

## CN(C)C(=S)SSC(=S)N(C)C [(10), Tetramethylthiuram disulfide]
Yeast gene YAL053W, incubated two hours with chemical substance
  The level of expressed mRNA in the presence of chemical substance/The level of expressed mRNA in the absence of chemical substance: 0.9
Yeast gene YBL048W
  The level of expressed mRNA in the presence of chemical substance/The level of expressed mRNA in the absence of chemical substance: 4.4
Yeast gene YBL107C
  The level of expressed mRNA in the presence of chemical substance/The level of expressed mRNA in the absence of chemical substance: 3.1
Yeast gene YBR100W
  The level of expressed mRNA in the presence of chemical substance/The level of expressed mRNA in the absence of chemical substance: 3.0
Yeast gene YDL072C, incubated two hours with chemical substance
  The level of expressed mRNA in the presence of chemical substance/The level of expressed mRNA in the absence of chemical substance: 1.5
Yeast gene YDL204W, incubated two hours with chemical substance
  The level of expressed mRNA in the presence of chemical substance/The level of expressed mRNA in the absence of chemical substance: 2.0
Yeast gene YDL222C, incubated two hours with chemical substance
  The level of expressed mRNA in the presence of chemical substance/The level of expressed mRNA in the absence of chemical substance: 1.0
Yeast gene YDR330W, incubated two hours with chemical substance
  The level of expressed mRNA in the presence of chemical substance/The level of expressed mRNA in the absence of chemical substance: 2.6
Yeast gene YDR391C, incubated two hours with chemical substance
  The level of expressed mRNA in the presence of chemical substance/The level of expressed mRNA in the absence of chemical substance: 2.7
Yeast gene YDR411C, incubated two hours with chemical substance
  The level of expressed mRNA in the presence of chemical substance/The level of expressed mRNA in the absence of chemical substance: 1.0
Yeast gene YDR511W, incubated two hours with chemical substance
  The level of expressed mRNA in the presence of chemical substance/The level of expressed mRNA in the absence of chemical substance: 2.2
Yeast gene YDR545W, incubated two hours with chemical substance
  The level of expressed mRNA in the presence of chemical substance/The level of expressed mRNA in the absence of chemical substance: 0.7
Yeast gene YEL001C, incubated two hours with chemical substance
  The level of expressed mRNA in the presence of chemical substance/The level of expressed mRNA in the absence of chemical substance: 1.2
Yeast gene YER004W, incubated two hours with chemical substance
  The level of expressed mRNA in the presence of chemical substance/The level of expressed mRNA in the absence of chemical substance: 2.9
Yeast gene YER035W, incubated two hours with chemical substance
  The level of expressed mRNA in the presence of chemical substance/The level of expressed mRNA in the absence of chemical substance: 1.4
Yeast gene YER079W, incubated two hours with chemical substance
  The level of expressed mRNA in the presence of chemical substance/The level of expressed mRNA in the absence of chemical substance: 3.4
Yeast gene YER106W, incubated two hours with chemical substance
  The level of expressed mRNA in the presence of chemical substance/The level of expressed mRNA in the absence of chemical substance: 1.8
Yeast gene YER158C, incubated two hours with chemical substance
  The level of expressed mRNA in the presence of chemical substance/The level of expressed mRNA in the absence of chemical substance: 1.6
Yeast gene YER163C, incubated two hours with chemical substance
  The level of expressed mRNA in the presence of chemical substance/The level of expressed mRNA in the absence of chemical substance: 3.4
Yeast gene YER175C, incubated two hours with chemical substance
  The level of expressed mRNA in the presence of chemical substance/The level of expressed mRNA in the absence of chemical substance: 11.5
Yeast gene YFL006W, incubated two hours with chemical substance
  The level of expressed mRNA in the presence of chemical substance/The level of expressed mRNA in the absence of chemical substance: 1.7
Yeast gene YFL010C, incubated two hours with chemical substance
  The level of expressed mRNA in the presence of chemical substance/The level of expressed mRNA in the absence of chemical substance: 1.4
Yeast gene YFL024C
  The level of expressed mRNA in the presence of chemical substance/The level of expressed mRNA in the absence of chemical substance: 0.5
Yeast gene YFL032W, incubated two hours with chemical substance
  The level of expressed mRNA in the presence of chemical substance/The level of expressed mRNA in the absence of chemical substance: 0.6
Yeast gene YFR020W
  The level of expressed mRNA in the presence of chemical substance/The level of expressed mRNA in the absence of chemical substance: 3.5
Yeast gene YGL037C, incubated two hours with chemical substance
  The level of expressed mRNA in the presence of chemical substance/The level of expressed mRNA in the absence of chemical substance: 1.6
Yeast gene YGL047W, incubated two hours with chemical substance
  The level of expressed mRNA in the presence of chemical substance/The level of expressed mRNA in the absence of chemical substance: 5.7
Yeast gene YGL053W, incubated two hours with chemical substance
  The level of expressed mRNA in the presence of chemical substance/The level of expressed mRNA in the absence of chemical substance: 2.4
Yeast gene YGL121C
  The level of expressed mRNA in the presence of chemical substance/The level of expressed mRNA in the absence of chemical substance: 15.0
Yeast gene YGL199C, incubated two hours with chemical substance
  The level of expressed mRNA in the presence of chemical substance/The level of expressed mRNA in the absence of chemical substance: 0.1
Yeast gene YGR101W, incubated two hours with chemical substance
  The level of expressed mRNA in the presence of chemical substance/The level of expressed mRNA in the absence of chemical substance: 1.4
Yeast gene YGR110W
  The level of expressed mRNA in the presence of chemical substance/The level of expressed mRNA in the absence of chemical substance: 4.8
Yeast gene YGR130C, incubated two hours with chemical substance
  The level of expressed mRNA in the presence of chemical substance/The level of expressed mRNA in the absence of chemical substance: 1.5
Yeast gene YGR154C, incubated two hours with chemical substance
  The level of expressed mRNA in the presence of chemical substance/The level of expressed mRNA in the absence of chemical substance: 9.1
Yeast gene YGR221C, incubated two hours with chemical substance
  The level of expressed mRNA in the presence of chemical substance/The level of expressed mRNA in the absence of chemical substance: 0.7
Yeast gene YGR243W
  The level of expressed mRNA in the presence of chemical substance/The level of expressed mRNA in the absence of chemical substance: 3.0
Yeast gene YHR029C
  The level of expressed mRNA in the presence of chemical substance/The level of expressed mRNA in the absence of chemical substance: 8.6
Yeast gene YHR105W
  The level of expressed mRNA in the presence of chemical substance/The level of expressed mRNA in the absence of chemical substance: 3.4
Yeast gene YHR138C, incubated two hours with chemical substance
  The level of expressed mRNA in the presence of chemical substance/The level of expressed mRNA in the absence of chemical substance: 4.6
Yeast gene YHR199C, incubated two hours with chemical substance
  The level of expressed mRNA in the presence of chemical substance/The level of expressed mRNA in the absence of chemical substance: 6.0
Yeast gene YHR209W
  The level of expressed mRNA in the presence of chemical substance/The level of expressed mRNA in the absence of chemical substance: 6.4
Yeast gene YIL023C, incubated two hours with chemical substance
  The level of expressed mRNA in the presence of chemical substance/The level of expressed mRNA in the absence of chemical substance: 1.6
Yeast gene YIL024C, incubated two hours with chemical substance
  The level of expressed mRNA in the presence of chemical substance/The level of expressed mRNA in the absence of chemical substance: 1.8
Yeast gene YIL041W, incubated two hours with chemical substance
  The level of expressed mRNA in the presence of chemical substance/The level of expressed mRNA in the absence of chemical substance: 1.4
Yeast gene YIL087C, incubated two hours with chemical substance
  The level of expressed mRNA in the presence of chemical substance/The level of expressed mRNA in the absence of chemical substance: 1.8
Yeast gene YJL057C, incubated two hours with chemical substance
  The level of expressed mRNA in the presence of chemical substance/The level of expressed mRNA in the absence of chemical substance: 6.1
Yeast gene YJL066C, incubated two hours with chemical substance
  The level of expressed mRNA in the presence of chemical substance/The level of expressed mRNA in the absence of chemical substance: 2.1
Yeast gene YJL082W, incubated two hours with chemical substance
  The level of expressed mRNA in the presence of chemical substance/The level of expressed mRNA in the absence of chemical substance: 2.9
Yeast gene YJL151C, incubated two hours with chemical substance
  The level of expressed mRNA in the presence of chemical substance/The level of expressed mRNA in the absence of chemical substance: 1.6
Yeast gene YJL152W, incubated two hours with chemical substance
  The level of expressed mRNA in the presence of chemical substance/The level of expressed mRNA in the absence of chemical substance: 1.0
Yeast gene YJL161W, incubated two hours with chemical substance
  The level of expressed mRNA in the presence of chemical substance/The level of expressed mRNA in the absence of chemical substance: 2.1
Yeast gene YJL171C, incubated two hours with chemical substance
  The level of expressed mRNA in the presence of chemical substance/The level of expressed mRNA in the absence of chemical substance: 1.7
Yeast gene YJR008W, incubated two hours with chemical substance
  The level of expressed mRNA in the presence of chemical substance/The level of expressed mRNA in the absence of chemical substance: 1.9
Yeast gene YJR054W, incubated two hours with chemical substance
  The level of expressed mRNA in the presence of chemical substance/The level of expressed mRNA in the absence of chemical substance: 0.6
Yeast gene YKL071W
  The level of expressed mRNA in the presence of chemical substance/The level of expressed mRNA in the absence of chemical substance: 109.2
